Columns and labels:
Acetylcholinesterase [1] = target: T1, Acetylcholinesterase (Bos taurus, UniProt P23795); assay: Inhibition of bovine erythrocytes AChE by Ellman's method
T1 sequence (P23795 whole entry): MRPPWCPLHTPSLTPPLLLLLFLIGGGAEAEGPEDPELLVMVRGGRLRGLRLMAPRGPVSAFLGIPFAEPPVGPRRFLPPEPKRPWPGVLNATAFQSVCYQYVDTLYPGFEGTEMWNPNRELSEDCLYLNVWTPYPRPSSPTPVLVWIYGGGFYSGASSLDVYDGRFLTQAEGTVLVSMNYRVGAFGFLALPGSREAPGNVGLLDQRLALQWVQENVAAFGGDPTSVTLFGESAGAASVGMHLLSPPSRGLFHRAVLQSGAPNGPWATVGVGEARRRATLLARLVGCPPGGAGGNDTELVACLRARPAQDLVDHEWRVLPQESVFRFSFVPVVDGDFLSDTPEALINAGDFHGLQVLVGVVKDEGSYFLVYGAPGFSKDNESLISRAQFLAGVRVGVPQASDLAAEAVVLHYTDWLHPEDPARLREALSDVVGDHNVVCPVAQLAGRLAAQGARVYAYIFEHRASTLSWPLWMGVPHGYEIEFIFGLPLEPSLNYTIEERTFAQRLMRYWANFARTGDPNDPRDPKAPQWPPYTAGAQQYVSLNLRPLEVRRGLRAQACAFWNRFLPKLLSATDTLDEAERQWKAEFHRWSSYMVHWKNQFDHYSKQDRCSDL

Cholinesterase = Cholinesterase (Homo sapiens, UniProt P06276)
Description: Inhibition of human serum BuChE by Ellman's method

Acetylcholinesterase [2] = target: Acetylcholinesterase (Torpedo californica, UniProt P04058)
Description: Inhibition of Torpedo californica AChE by Ellman's method

Acetylcholinesterase [3] = target: Acetylcholinesterase (Homo sapiens, UniProt P22303)
Description: Inhibition of human recombinant AChE by Ellman's method

Acetylcholinesterase [4] = target: Acetylcholinesterase (Electrophorus electricus, UniProt O42275)
Sequence of Acetylcholinesterase (Electrophorus electricus, UniProt O42275) (O42275 whole entry): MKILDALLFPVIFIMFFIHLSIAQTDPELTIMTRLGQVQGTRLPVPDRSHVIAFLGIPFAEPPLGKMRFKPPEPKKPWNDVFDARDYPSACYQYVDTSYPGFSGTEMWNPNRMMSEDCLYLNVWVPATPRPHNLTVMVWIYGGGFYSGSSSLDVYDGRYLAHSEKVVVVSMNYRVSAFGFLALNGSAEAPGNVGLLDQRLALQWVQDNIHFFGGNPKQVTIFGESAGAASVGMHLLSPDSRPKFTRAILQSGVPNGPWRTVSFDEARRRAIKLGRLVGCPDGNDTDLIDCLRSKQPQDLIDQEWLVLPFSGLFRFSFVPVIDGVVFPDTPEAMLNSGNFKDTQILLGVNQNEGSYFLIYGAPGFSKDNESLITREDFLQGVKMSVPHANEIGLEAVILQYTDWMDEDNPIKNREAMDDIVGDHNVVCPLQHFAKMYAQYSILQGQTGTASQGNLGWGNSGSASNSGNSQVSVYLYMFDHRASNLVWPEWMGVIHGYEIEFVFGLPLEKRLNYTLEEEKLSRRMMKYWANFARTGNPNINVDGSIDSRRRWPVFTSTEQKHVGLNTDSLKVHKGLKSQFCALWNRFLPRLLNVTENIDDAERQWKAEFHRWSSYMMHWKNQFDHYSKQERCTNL
Description: Inhibition of Electrophorus electricus AChE by Ellman's method

Sequence of Acetylcholinesterase (Torpedo californica, UniProt P04058) (P04058 whole entry): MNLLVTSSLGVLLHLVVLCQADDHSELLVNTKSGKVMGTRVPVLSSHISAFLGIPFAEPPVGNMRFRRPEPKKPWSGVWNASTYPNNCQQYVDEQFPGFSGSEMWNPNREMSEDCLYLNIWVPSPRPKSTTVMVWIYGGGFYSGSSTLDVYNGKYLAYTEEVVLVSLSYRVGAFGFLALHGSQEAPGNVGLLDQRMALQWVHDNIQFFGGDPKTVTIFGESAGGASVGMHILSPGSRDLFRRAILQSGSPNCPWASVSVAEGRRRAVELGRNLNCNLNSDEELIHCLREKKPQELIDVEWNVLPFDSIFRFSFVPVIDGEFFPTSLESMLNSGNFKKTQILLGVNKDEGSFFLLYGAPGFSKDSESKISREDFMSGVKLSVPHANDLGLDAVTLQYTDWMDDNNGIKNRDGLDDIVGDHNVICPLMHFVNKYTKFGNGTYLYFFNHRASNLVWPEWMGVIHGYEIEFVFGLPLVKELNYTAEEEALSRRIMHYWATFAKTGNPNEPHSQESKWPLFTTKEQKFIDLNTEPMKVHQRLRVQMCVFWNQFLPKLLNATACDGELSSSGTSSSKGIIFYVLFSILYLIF
Sequence of Cholinesterase (P06276 whole entry): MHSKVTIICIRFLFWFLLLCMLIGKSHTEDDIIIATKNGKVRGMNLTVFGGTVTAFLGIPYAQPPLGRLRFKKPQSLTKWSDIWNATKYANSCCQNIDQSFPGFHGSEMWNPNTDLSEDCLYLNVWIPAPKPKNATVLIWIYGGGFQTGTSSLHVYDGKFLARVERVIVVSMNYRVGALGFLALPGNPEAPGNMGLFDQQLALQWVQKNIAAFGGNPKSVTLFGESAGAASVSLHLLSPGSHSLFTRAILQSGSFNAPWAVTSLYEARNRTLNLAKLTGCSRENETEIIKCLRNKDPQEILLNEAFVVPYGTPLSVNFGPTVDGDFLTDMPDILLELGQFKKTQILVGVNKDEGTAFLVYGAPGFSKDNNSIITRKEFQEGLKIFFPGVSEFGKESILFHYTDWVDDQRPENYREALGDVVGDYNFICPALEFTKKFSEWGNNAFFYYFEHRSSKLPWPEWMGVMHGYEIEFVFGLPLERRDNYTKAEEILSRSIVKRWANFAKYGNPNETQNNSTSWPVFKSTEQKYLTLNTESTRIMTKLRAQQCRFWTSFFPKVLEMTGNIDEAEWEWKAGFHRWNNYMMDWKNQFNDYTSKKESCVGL
Sequence of Acetylcholinesterase (Homo sapiens, UniProt P22303) (P22303 whole entry): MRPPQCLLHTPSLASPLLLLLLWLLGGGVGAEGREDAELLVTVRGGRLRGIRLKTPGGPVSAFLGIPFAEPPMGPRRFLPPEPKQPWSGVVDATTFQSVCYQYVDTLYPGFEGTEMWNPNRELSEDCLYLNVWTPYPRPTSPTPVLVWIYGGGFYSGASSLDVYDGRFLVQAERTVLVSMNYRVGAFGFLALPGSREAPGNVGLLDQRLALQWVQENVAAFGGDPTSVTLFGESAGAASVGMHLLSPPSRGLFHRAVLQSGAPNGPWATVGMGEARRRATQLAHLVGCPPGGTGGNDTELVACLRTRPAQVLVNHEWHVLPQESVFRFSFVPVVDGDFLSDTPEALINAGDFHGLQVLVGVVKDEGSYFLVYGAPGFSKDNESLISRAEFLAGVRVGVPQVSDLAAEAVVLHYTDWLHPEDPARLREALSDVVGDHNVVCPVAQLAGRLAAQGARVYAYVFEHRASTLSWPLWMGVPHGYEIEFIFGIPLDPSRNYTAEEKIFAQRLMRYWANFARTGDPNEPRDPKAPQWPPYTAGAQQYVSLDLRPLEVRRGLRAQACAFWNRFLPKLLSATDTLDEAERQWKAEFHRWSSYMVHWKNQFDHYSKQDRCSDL

| SMILES | IC50 (Acetylcholinesterase [1]) | IC50 (Cholinesterase) | IC50 (Acetylcholinesterase [2]) | IC50 (Acetylcholinesterase [3]) | IC50 (Acetylcholinesterase [4]) |
| --- | --- | --- | --- | --- | --- |
| CC[C@H](C)C1=N[C@H]2CC=C3C[C@H]4C(=O)C[C@]5(C)[C@@H]([C@H](C)N(C)C)[C@H](O)C[C@@]5(C)[C@@H]4CC[C@H]3[C@]2(C)CN1 | 7350 nM | > 10 µM | 447 nM | 3830 nM |  |
| CC[C@H](C)C(=O)N[C@H]1CC=C2C[C@H]3C(=O)C[C@]4(C)[C@@H]([C@H](C)N(C)C)[C@H](O)C[C@@]4(C)[C@@H]3CC[C@H]2[C@]1(C)/C=N/Cc1ccccc1 |  | > 10 µM |  |  |  |
| CC[C@H](C)C(=O)N[C@H]1CC[C@H]2C[C@H]3C(=O)C[C@]4(C)[C@@H]([C@H](C)N(C)C)[C@H](O)C[C@@]4(C)[C@@H]3CC[C@H]2[C@]1(C)CN |  |  |  |  | 1340 nM |
| CC[C@H](C)C(=O)N[C@H]1CC=C2C[C@H]3C(=O)C[C@]4(C)[C@@H]([C@H](C)N(C)C)[C@H](O)C[C@@]4(C)[C@@H]3CC[C@H]2[C@]1(C)CO |  | > 10 µM |  |  | 105 nM |
| CN[C@@H](C)[C@H]1[C@H](O)C[C@@]2(C)[C@@H]3CC[C@@H]4C(=CC[C@@H]5N=C(C(C)C)OC[C@]54C)C[C@H]3C(=O)C[C@]12C | 2230 nM |  | 485 nM | 517 nM | 106 nM |
| CN[C@@H](C)[C@H]1[C@H](O)C[C@@]2(C)[C@@H]3CC[C@@H]4[C@@H](CC[C@H](NC(=O)C(C)C)[C@@]4(C)CO)C[C@H]3C(=O)C[C@]12C |  | 1.44 µM |  |  | 110 nM |
| CC(C)C1=N[C@H]2CC[C@]34C[C@]35C(=O)C[C@]3(C)[C@@H]([C@H](C)N(C)C)[C@H](O)C[C@@]3(C)[C@@H]5CC[C@H]4[C@]2(C)CN1 | 3280 nM | > 10 µM | 2 nM | 3110 nM | 18 nM |
| CC[C@H](C)C1=N[C@H]2CC[C@]34C[C@]35C(=O)C[C@]3(C)[C@@H]([C@H](C)N(C)C)[C@H](O)C[C@@]3(C)[C@@H]5CC[C@H]4[C@]2(C)CN1 | 6490 nM |  | 2 nM | 4370 nM | 14 nM |
| CC[C@H](C)C(=O)N[C@H]1CC=C2C[C@H]3C(=O)C[C@]4(C)[C@@H]([C@H](C)N(C)C)[C@H](O)C[C@@]4(C)[C@@H]3CC[C@H]2[C@]1(C)CN |  | > 10 µM |  |  |  |
| CC(C)[C@H]1N[C@H]2CC=C3C[C@H]4C(=O)C[C@]5(C)[C@@H]([C@H](C)N(C)C)[C@H](O)C[C@@]5(C)[C@@H]4CC[C@H]3[C@]2(C)CO1 |  | > 10 µM |  |  | 2380 nM |
| CCC(CC)C1=N[C@H]2CC=C3C[C@H]4C(=O)C[C@]5(C)[C@@H]([C@H](C)N(C)C)[C@H](O)C[C@@]5(C)[C@@H]4CC[C@H]3[C@]2(C)CO1 |  | 1.54 µM |  |  |  |
| C[C@@H]([C@H]1[C@H](O)C[C@@]2(C)[C@@H]3CC[C@@H]4C(=CC[C@@H]5N=C(C(C)(C)C)OC[C@]54C)C[C@H]3C(=O)C[C@]12C)N(C)C | 1180 nM | > 10 µM | 372 nM | 351 nM |  |
| CC(C)C(=O)N[C@H]1CC[C@H]2C[C@H]3C(=O)C[C@]4(C)[C@@H]([C@H](C)N(C)C)[C@H](O)C[C@@]4(C)[C@@H]3CC[C@H]2[C@]1(C)CN |  |  |  |  | 291 nM |
| CC(C)C(=O)N[C@H]1CCC23CC24C(=O)C[C@]2(C)[C@@H]([C@H](C)N(C)C)[C@H](O)C[C@@]2(C)[C@@H]4CC[C@H]3[C@]1(C)CO (some centres not stated) |  | > 10 µM |  |  | > 10000 nM |
| CC(C)[C@H]1N[C@H]2CC[C@]34C[C@]35C(=O)C[C@]3(C)[C@@H]([C@H](C)N(C)C)C(O)C[C@@]3(C)[C@@H]5CC[C@H]4[C@]2(C)CO1 (some centres not stated) |  | > 10 µM |  |  | 820 nM |
| CC1=N[C@H]2CC=C3C[C@H]4C(=O)C[C@]5(C)[C@@H]([C@H](C)N(C)C)[C@H](O)C[C@@]5(C)[C@@H]4CC[C@H]3[C@]2(C)CO1 | 6120 nM | > 10 µM | 2790 nM | 5240 nM |  |
| CC(C)C1=N[C@H]2CC[C@H]3C=C4C(=O)C[C@]5(C)[C@@H]([C@H](C)N(C)C)[C@H](O)C[C@@]5(C)[C@@H]4CC[C@H]3[C@]2(C)CO1 |  | 1.45 µM |  |  | 110 nM |
| CCC(CC)C(=O)N[C@H]1CC=C2C[C@H]3C(=O)C[C@]4(C)[C@@H]([C@H](C)N(C)C)[C@H](O)C[C@@]4(C)[C@@H]3CC[C@H]2[C@]1(C)CO |  | > 10 µM |  |  |  |
| CC[C@H](C)C1=N[C@H]2CC=C3C[C@H]4C(=O)C[C@]5(C)[C@@H]([C@H](C)N(C)C)[C@H](O)C[C@@]5(C)[C@@H]4CC[C@H]3[C@]2(C)CO1 | 1360 nM | > 10 µM | 237 nM | 265 nM |  |
| CC(C)C1=N[C@H]2CC=C3CC4C(=O)C[C@]5(C)[C@@H]([C@H](C)N(C)C)[C@H](O)C[C@@]5(C)[C@@H]4CC[C@H]3[C@]2(C)CO1 (some centres not stated) | 756 nM | > 1 µM | 385 nM | 299 nM | 31 nM |
| C[C@@H]([C@H]1[C@H](O)C[C@@]2(C)[C@@H]3CC[C@@H]4C(=CC[C@@H]5N=C(c6ccccc6)OC[C@]54C)C[C@H]3C(=O)C[C@]12C)N(C)C |  | > 10 µM |  |  |  |
| C[C@@H]([C@H]1[C@H](O)C[C@@]2(C)[C@@H]3CC[C@@H]4C(=CC[C@@H]5N=C(Cc6ccccc6)OC[C@]54C)C[C@H]3C(=O)C[C@]12C)N(C)C |  | 0.38 µM |  |  |  |
| CC(C)C1=N[C@H]2CC=C3C[C@H]4C(=O)C[C@]5(C)[C@@H]([C@H](C)N(C)C)[C@H](OC(=O)C(C)(C)C)C[C@@]5(C)[C@@H]4CC[C@H]3[C@]2(C)CO1 | 1380 nM |  | 724 nM | 839 nM | 110 nM |
| CC(=O)O[C@@H]1C[C@@]2(C)[C@@H]3CC[C@@H]4C(=CC[C@@H]5N=C(C(C)C)OC[C@]54C)C[C@H]3C(=O)C[C@]2(C)[C@H]1[C@H](C)N(C)C |  |  |  |  | 380 nM |
| CCC(C)C1=N[C@H]2CC=C3C[C@H]4C(=O)C[C@]5(C)[C@@H]([C@H](C)N(C)C)[C@H](O)C[C@@]5(C)[C@@H]4CC[C@H]3[C@]2(C)CO1 (some centres not stated) |  | > 10 µM |  |  |  |
| CCC1=N[C@H]2CC=C3C[C@H]4C(=O)C[C@]5(C)[C@@H]([C@H](C)N(C)C)[C@H](O)C[C@@]5(C)[C@@H]4CC[C@H]3[C@]2(C)CO1 |  | > 10 µM |  |  |  |
| CC(C)C(=O)N[C@H]1CC=C2C[C@H]3C(=O)C[C@]4(C)[C@@H]([C@H](C)N(C)C)[C@H](O)C[C@@]4(C)[C@@H]3CC[C@H]2[C@]1(C)CO (racemic) |  | 1.93 µM |  |  |  |
